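All cell lines were grown in 96-well plates and treated with compound for 48 hours. Abbreviation: GI50, concentration required for 50% inhibition of growth.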 Calls of active or inactive are those of the source. Cut-off read from the data, not from the text of the source: active = GI50 up to about 1.1 µM and inactive = higher.
Columns and labels:
Experiment in all cases: NCI-60 cell line screen, 48 h
786-0 = system: 786-0
A498 = system: A498
A549 = system: A549
ACHN = system: ACHN
CAKI-1 = system: CAKI-1
CCRF-CEM = system: CCRF-CEM
DLD-1 = system: DLD-1
DMS-114 = system: DMS-114
DMS-273 = system: DMS-273
EKVX = system: EKVX
HCC 2998 = system: HCC 2998
HCT-116 = system: HCT-116
HCT-15 = system: HCT-15
HL-60 = system: HL-60
HOP-92 = system: HOP-92
HT-29 = system: HT-29
IGROV-1 = system: IGROV-1
K562 = system: K562
KM-20L2 = system: KM-20L2
LOX IMVI = system: LOX IMVI
LXFL 529 = system: LXFL 529
M14 = system: M14
M19-MEL = system: M19-MEL
MOLT-4 = system: MOLT-4
Malme-3M = system: Malme-3M
NCI-H226 = system: NCI-H226
NCI-H23 = system: NCI-H23
NCI-H460 = system: NCI-H460
OVCAR-3 = system: OVCAR-3
OVCAR-4 = system: OVCAR-4
OVCAR-5 = system: OVCAR-5
OVCAR-8 = system: OVCAR-8
RPMI-8226 = system: RPMI-8226
RXF 393 = system: RXF 393
RXF 631 = system: RXF 631
SF-268 = system: SF-268
SF-295 = system: SF-295
SF-539 = system: SF-539
SK-MEL-28 = system: SK-MEL-28
SK-MEL-2 = system: SK-MEL-2
SK-MEL-5 = system: SK-MEL-5
SN12C = system: SN12C
SNB-19 = system: SNB-19
SNB-75 = system: SNB-75
SNB-78 = system: SNB-78
SR = system: SR
SW-620 = system: SW-620
TK-10 = system: TK-10
U-251 = system: U-251
UACC-257 = system: UACC-257
UACC-62 = system: UACC-62
UO-31 = system: UO-31
COLO 205 = system: COLO 205
HOP-18 = system: HOP-18
HOP-62 = system: HOP-62
KM12 = system: KM12
NCI-H522 = system: NCI-H522
SK-OV-3 = system: SK-OV-3

O=C(CC1Sc2ccccc2NC1=O)Nc1cc(Cl)ccc1Cl (configuration not stated)
GI50 (786-0): > 100 µM (inactive) | GI50 (A498): > 100 µM (inactive) | GI50 (A549): > 100 µM (inactive) | GI50 (ACHN): > 100 µM (inactive) | GI50 (CAKI-1): > 100 µM (inactive) | GI50 (CCRF-CEM): 31.2 µM (inactive) | GI50 (DLD-1): > 100 µM (inactive) | GI50 (DMS-114): > 100 µM (inactive) | GI50 (DMS-273): > 100 µM (inactive) | GI50 (EKVX): > 100 µM (inactive) | GI50 (HCC 2998): > 100 µM (inactive) | GI50 (HCT-116): > 100 µM (inactive) | GI50 (HCT-15): > 100 µM | GI50 (HL-60): > 100 µM (inactive) | GI50 (HOP-92): > 100 µM (inactive) | GI50 (HT-29): > 100 µM (inactive) | GI50 (IGROV-1): > 100 µM (inactive) | GI50 (K562): > 100 µM (inactive) | GI50 (KM-20L2): > 100 µM (inactive) | GI50 (LOX IMVI): > 100 µM (inactive) | GI50 (LXFL 529): > 100 µM (inactive) | GI50 (M14): > 100 µM (inactive) | GI50 (M19-MEL): > 100 µM (inactive) | GI50 (MOLT-4): 29.8 µM (inactive) | GI50 (Malme-3M): > 100 µM (inactive) | GI50 (NCI-H226): > 100 µM (inactive) | GI50 (NCI-H23): > 100 µM (inactive) | GI50 (NCI-H460): > 100 µM (inactive) | GI50 (OVCAR-3): > 100 µM (inactive) | GI50 (OVCAR-4): > 100 µM (inactive) | GI50 (OVCAR-5): > 100 µM (inactive) | GI50 (OVCAR-8): > 100 µM (inactive) | GI50 (RPMI-8226): > 100 µM (inactive) | GI50 (RXF 393): > 100 µM (inactive) | GI50 (RXF 631): > 100 µM (inactive) | GI50 (SF-268): > 100 µM (inactive) | GI50 (SF-295): > 100 µM (inactive) | GI50 (SF-539): 92.3 µM (inactive) | GI50 (SK-MEL-28): > 100 µM (inactive) | GI50 (SK-MEL-2): > 100 µM (inactive) | GI50 (SK-MEL-5): > 100 µM (inactive) | GI50 (SN12C): > 100 µM (inactive) | GI50 (SNB-19): > 100 µM (inactive) | GI50 (SNB-75): 33.4 µM (inactive) | GI50 (SNB-78): > 100 µM (inactive) | GI50 (SR): 27.3 µM (inactive) | GI50 (SW-620): > 100 µM (inactive) | GI50 (TK-10): > 100 µM (inactive) | GI50 (U-251): 49.9 µM (inactive) | GI50 (UACC-257): > 100 µM (inactive) | GI50 (UACC-62): > 100 µM (inactive) | GI50 (UO-31): > 100 µM (inactive)

O=C(CCc1nnc(S)[nH]1)Nc1cc(Cl)ccc1Cl
GI50 (786-0): > 100 µM (inactive) | GI50 (A498): > 100 µM (inactive) | GI50 (A549): > 100 µM (inactive) | GI50 (ACHN): > 100 µM (inactive) | GI50 (CAKI-1): > 100 µM (inactive) | GI50 (CCRF-CEM): > 100 µM (inactive) | GI50 (COLO 205): > 100 µM (inactive) | GI50 (DLD-1): > 100 µM (inactive) | GI50 (DMS-114): > 100 µM (inactive) | GI50 (DMS-273): > 100 µM (inactive) | GI50 (EKVX): > 100 µM (inactive) | GI50 (HCC 2998): > 100 µM (inactive) | GI50 (HCT-116): > 100 µM (inactive) | GI50 (HCT-15): > 100 µM | GI50 (HL-60): > 100 µM (inactive) | GI50 (HOP-18): > 100 µM (inactive) | GI50 (HOP-62): > 100 µM (inactive) | GI50 (HOP-92): > 100 µM (inactive) | GI50 (HT-29): > 100 µM (inactive) | GI50 (IGROV-1): > 100 µM (inactive) | GI50 (K562): > 100 µM (inactive) | GI50 (KM-20L2): > 100 µM (inactive) | GI50 (KM12): > 100 µM (inactive) | GI50 (LXFL 529): > 100 µM (inactive) | GI50 (M14): > 100 µM (inactive) | GI50 (M19-MEL): > 100 µM (inactive) | GI50 (MOLT-4): > 100 µM (inactive) | GI50 (Malme-3M): > 100 µM (inactive) | GI50 (NCI-H226): > 100 µM (inactive) | GI50 (NCI-H23): > 100 µM (inactive) | GI50 (NCI-H460): > 100 µM (inactive) | GI50 (NCI-H522): > 100 µM (inactive) | GI50 (OVCAR-3): > 100 µM (inactive) | GI50 (OVCAR-4): > 100 µM (inactive) | GI50 (OVCAR-5): > 100 µM (inactive) | GI50 (OVCAR-8): > 100 µM (inactive) | GI50 (RPMI-8226): > 100 µM (inactive) | GI50 (RXF 631): > 100 µM (inactive) | GI50 (SF-268): > 100 µM (inactive) | GI50 (SF-295): > 100 µM (inactive) | GI50 (SF-539): > 100 µM (inactive) | GI50 (SK-MEL-28): > 100 µM (inactive) | GI50 (SK-MEL-2): > 100 µM (inactive) | GI50 (SK-MEL-5): > 100 µM (inactive) | GI50 (SK-OV-3): > 100 µM (inactive) | GI50 (SN12C): > 100 µM (inactive) | GI50 (SNB-19): > 100 µM (inactive) | GI50 (SNB-75): 37.9 µM (inactive) | GI50 (SR): > 100 µM (inactive) | GI50 (SW-620): > 100 µM (inactive) | GI50 (TK-10): > 100 µM (inactive) | GI50 (U-251): > 100 µM (inactive) | GI50 (UACC-257): > 100 µM (inactive) | GI50 (UACC-62): > 100 µM (inactive) | GI50 (UO-31): > 100 µM (inactive)
